Laboratory results: PubChem BioAssay (NCI)
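Each compound was tested at five concentrations against cells in 96-well plates for 48 hours. GI50: concentration for 50% inhibition of growth. TGI: total growth inhibition.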

How the values were obtained:
Test in all cases: NCI-60 cell line screen, 48 h
786-0 renal = test system: 786-0 renal
A498 renal = test system: A498 renal
A549 NSCLC = test system: A549 NSCLC
ACHN renal = test system: ACHN renal
BT-549 breast = test system: BT-549 breast
CAKI-1 renal = test system: CAKI-1 renal
CCRF-CEM leukemia = test system: CCRF-CEM leukemia
DU-145 prostate = test system: DU-145 prostate
EKVX NSCLC = test system: EKVX NSCLC
HCC-2998 colon = test system: HCC-2998 colon
HCT-116 colon = test system: HCT-116 colon
HCT-15 colon = test system: HCT-15 colon
HOP-62 NSCLC = test system: HOP-62 NSCLC
HOP-92 NSCLC = test system: HOP-92 NSCLC
HS 578T breast = test system: HS 578T breast
HT29 colon = test system: HT29 colon
IGROV1 ovarian = test system: IGROV1 ovarian
K-562 leukemia = test system: K-562 leukemia
KM12 colon = test system: KM12 colon
LOX IMVI melanoma = test system: LOX IMVI melanoma
M14 melanoma = test system: M14 melanoma
MALME-3M melanoma = test system: MALME-3M melanoma
MCF7 breast = test system: MCF7 breast
MDA-MB-231 breast = test system: MDA-MB-231 breast
MDA-MB-435 = test system: MDA-MB-435
MOLT-4 leukemia = test system: MOLT-4 leukemia
NCI-H226 lung = test system: NCI-H226 lung
NCI-H23 lung = test system: NCI-H23 lung
NCI-H460 lung = test system: NCI-H460 lung
NCI/ADR-RES ovarian = test system: NCI/ADR-RES ovarian
OVCAR-3 ovarian = test system: OVCAR-3 ovarian
OVCAR-4 ovarian = test system: OVCAR-4 ovarian
OVCAR-5 ovarian = test system: OVCAR-5 ovarian
OVCAR-8 ovarian = test system: OVCAR-8 ovarian
PC-3 prostate = test system: PC-3 prostate
RPMI-8226 leukemia = test system: RPMI-8226 leukemia
RXF 393 renal = test system: RXF 393 renal
SF-268 CNS = test system: SF-268 CNS
SF-295 CNS = test system: SF-295 CNS
SF-539 CNS = test system: SF-539 CNS
SK-MEL-2 melanoma = test system: SK-MEL-2 melanoma
SK-MEL-5 melanoma = test system: SK-MEL-5 melanoma
SK-OV-3 ovarian = test system: SK-OV-3 ovarian
SN12C renal = test system: SN12C renal
SNB-19 CNS = test system: SNB-19 CNS
SR leukemia = test system: SR leukemia
SW-620 colon = test system: SW-620 colon
T-47D breast = test system: T-47D breast
TK-10 renal = test system: TK-10 renal
U251 CNS = test system: U251 CNS
UACC-257 melanoma = test system: UACC-257 melanoma
UACC-62 melanoma = test system: UACC-62 melanoma
UO-31 renal = test system: UO-31 renal
COLO 205 colon = test system: COLO 205 colon
HL-60(TB) leukemia = test system: HL-60(TB) leukemia
NCI-H522 lung = test system: NCI-H522 lung
SK-MEL-28 melanoma = test system: SK-MEL-28 melanoma
SNB-75 CNS = test system: SNB-75 CNS

SMILES: COc1ccc(C2(c3ccc(OC)cc3)OC(=O)c3cccc4cccc2c34)cc1
- TGI (786-0 renal): > 100 µM
- TGI (A498 renal): > 100 µM
- TGI (A549 NSCLC): > 100 µM
- TGI (ACHN renal): > 100 µM
- TGI (BT-549 breast): > 100 µM
- TGI (CAKI-1 renal): 9.87 µM
- TGI (CCRF-CEM leukemia): 7.71 µM
- TGI (DU-145 prostate): > 100 µM
- TGI (EKVX NSCLC): 29 µM
- TGI (HCC-2998 colon): 37.5 µM
- TGI (HCT-116 colon): > 100 µM
- TGI (HCT-15 colon): > 100 µM
- TGI (HOP-62 NSCLC): > 100 µM
- TGI (HOP-92 NSCLC): > 100 µM
- TGI (HS 578T breast): 97.4 µM
- TGI (HT29 colon): 5.98 µM
- TGI (IGROV1 ovarian): > 100 µM
- TGI (K-562 leukemia): > 100 µM
- TGI (KM12 colon): > 100 µM
- TGI (LOX IMVI melanoma): > 100 µM
- TGI (M14 melanoma): > 100 µM
- TGI (MALME-3M melanoma): > 100 µM
- TGI (MCF7 breast): > 100 µM
- TGI (MDA-MB-231 breast): > 100 µM
- TGI (MDA-MB-435): > 100 µM
- TGI (MOLT-4 leukemia): > 100 µM
- TGI (NCI-H226 lung): > 100 µM
- TGI (NCI-H23 lung): > 100 µM
- TGI (NCI-H460 lung): > 100 µM
- TGI (NCI/ADR-RES ovarian): 7.55 µM
- TGI (OVCAR-3 ovarian): > 100 µM
- TGI (OVCAR-4 ovarian): > 100 µM
- TGI (OVCAR-5 ovarian): > 100 µM
- TGI (OVCAR-8 ovarian): > 100 µM
- TGI (PC-3 prostate): 6.47 µM
- TGI (RPMI-8226 leukemia): 8.8 µM
- TGI (RXF 393 renal): > 100 µM
- TGI (SF-268 CNS): > 100 µM
- TGI (SF-295 CNS): > 100 µM
- TGI (SF-539 CNS): 9.63 µM
- TGI (SK-MEL-2 melanoma): > 100 µM
- TGI (SK-MEL-5 melanoma): > 100 µM
- TGI (SK-OV-3 ovarian): > 100 µM
- TGI (SN12C renal): > 100 µM
- TGI (SNB-19 CNS): > 100 µM
- TGI (SR leukemia): 44.8 µM
- TGI (SW-620 colon): > 100 µM
- TGI (T-47D breast): 80.8 µM
- TGI (TK-10 renal): 96.4 µM
- TGI (U251 CNS): > 100 µM
- TGI (UACC-257 melanoma): > 100 µM
- TGI (UACC-62 melanoma): > 100 µM
- TGI (UO-31 renal): > 100 µM

SMILES: CCN1CCN(c2nc(NNC(=O)Cc3ccccc3)nc(N3CCN(C(c4ccccc4)c4ccccc4)CC3)n2)CC1
- GI50 (786-0 renal): 1.74 µM
- TGI (786-0 renal): 3.14 µM
- GI50 (A498 renal): 7.3 µM
- TGI (A498 renal): 20.9 µM
- GI50 (A549 NSCLC): 2.17 µM
- TGI (A549 NSCLC): 5.23 µM
- GI50 (ACHN renal): 1.65 µM
- TGI (ACHN renal): 3.07 µM
- GI50 (BT-549 breast): 1.67 µM
- TGI (BT-549 breast): 3.61 µM
- GI50 (CAKI-1 renal): 1.7 µM
- TGI (CAKI-1 renal): 3.31 µM
- GI50 (CCRF-CEM leukemia): 2.51 µM
- TGI (CCRF-CEM leukemia): 6.71 µM
- GI50 (COLO 205 colon): 1.88 µM
- TGI (COLO 205 colon): 3.82 µM
- GI50 (DU-145 prostate): 2.73 µM
- TGI (DU-145 prostate): 7.2 µM
- GI50 (EKVX NSCLC): 9.99 µM
- TGI (EKVX NSCLC): 30 µM
- GI50 (HCC-2998 colon): 1.71 µM
- TGI (HCC-2998 colon): 3.39 µM
- GI50 (HCT-116 colon): 1.72 µM
- TGI (HCT-116 colon): 3.13 µM
- GI50 (HCT-15 colon): 1.9 µM
- TGI (HCT-15 colon): 3.76 µM
- GI50 (HL-60(TB) leukemia): 1.89 µM
- TGI (HL-60(TB) leukemia): 4.04 µM
- GI50 (HOP-62 NSCLC): 2.06 µM
- TGI (HOP-62 NSCLC): 5.08 µM
- GI50 (HOP-92 NSCLC): 1.89 µM
- TGI (HOP-92 NSCLC): 4.7 µM
- GI50 (HS 578T breast): 1.68 µM
- TGI (HS 578T breast): 3.79 µM
- GI50 (HT29 colon): 2.24 µM
- TGI (HT29 colon): 5.66 µM
- GI50 (IGROV1 ovarian): 2.03 µM
- TGI (IGROV1 ovarian): 5.02 µM
- GI50 (K-562 leukemia): 1.8 µM
- TGI (K-562 leukemia): 4.38 µM
- GI50 (KM12 colon): 2.07 µM
- TGI (KM12 colon): 4.35 µM
- GI50 (LOX IMVI melanoma): 1.89 µM
- TGI (LOX IMVI melanoma): 3.43 µM
- GI50 (M14 melanoma): 1.83 µM
- TGI (M14 melanoma): 3.41 µM
- GI50 (MALME-3M melanoma): 1.64 µM
- TGI (MALME-3M melanoma): 3.29 µM
- GI50 (MDA-MB-231 breast): 1.99 µM
- TGI (MDA-MB-231 breast): 3.69 µM
- GI50 (MDA-MB-435): 1.75 µM
- TGI (MDA-MB-435): 3.2 µM
- GI50 (MOLT-4 leukemia): 2.63 µM
- TGI (MOLT-4 leukemia): 8.39 µM
- GI50 (NCI-H226 lung): 16.9 µM
- TGI (NCI-H226 lung): 42.7 µM
- GI50 (NCI-H23 lung): 5.51 µM
- TGI (NCI-H23 lung): 18.8 µM
- GI50 (NCI-H460 lung): 1.89 µM
- TGI (NCI-H460 lung): 3.63 µM
- GI50 (NCI-H522 lung): 1.99 µM
- TGI (NCI-H522 lung): 4.18 µM
- GI50 (NCI/ADR-RES ovarian): 3.37 µM
- TGI (NCI/ADR-RES ovarian): 14 µM
- GI50 (OVCAR-3 ovarian): 2 µM
- TGI (OVCAR-3 ovarian): 4.08 µM
- GI50 (OVCAR-4 ovarian): 4.71 µM
- TGI (OVCAR-4 ovarian): 17.5 µM
- GI50 (OVCAR-5 ovarian): 2.24 µM
- TGI (OVCAR-5 ovarian): 5.63 µM
- GI50 (OVCAR-8 ovarian): 2.51 µM
- TGI (OVCAR-8 ovarian): 6.57 µM
- GI50 (PC-3 prostate): 2.51 µM
- TGI (PC-3 prostate): 8.61 µM
- GI50 (RPMI-8226 leukemia): 1.79 µM
- TGI (RPMI-8226 leukemia): 4.31 µM
- GI50 (RXF 393 renal): 1.92 µM
- TGI (RXF 393 renal): 4.08 µM
- GI50 (SF-268 CNS): 2.06 µM
- TGI (SF-268 CNS): 5.06 µM
- GI50 (SF-295 CNS): 2.01 µM
- TGI (SF-295 CNS): 3.99 µM
- GI50 (SF-539 CNS): 1.78 µM
- TGI (SF-539 CNS): 3.24 µM
- GI50 (SK-MEL-2 melanoma): 2.1 µM
- TGI (SK-MEL-2 melanoma): 4.5 µM
- GI50 (SK-MEL-28 melanoma): 1.6 µM
- TGI (SK-MEL-28 melanoma): 2.98 µM
- GI50 (SK-MEL-5 melanoma): 1.71 µM
- TGI (SK-MEL-5 melanoma): 3.12 µM
- GI50 (SK-OV-3 ovarian): 2.09 µM
- TGI (SK-OV-3 ovarian): 4.48 µM
- GI50 (SN12C renal): 1.85 µM
- TGI (SN12C renal): 3.44 µM
- GI50 (SNB-19 CNS): 3.35 µM
- TGI (SNB-19 CNS): 11.7 µM
- GI50 (SNB-75 CNS): 1.78 µM
- TGI (SNB-75 CNS): 4.36 µM
- GI50 (SR leukemia): 1.92 µM
- TGI (SR leukemia): 5.31 µM
- GI50 (SW-620 colon): 1.87 µM
- TGI (SW-620 colon): 3.69 µM
- GI50 (T-47D breast): 1.85 µM
- TGI (T-47D breast): 4.8 µM
- GI50 (TK-10 renal): 1.97 µM
- TGI (TK-10 renal): 3.85 µM
- GI50 (U251 CNS): 1.78 µM
- TGI (U251 CNS): 3.6 µM
- GI50 (UACC-257 melanoma): 1.83 µM
- TGI (UACC-257 melanoma): 3.79 µM
- GI50 (UACC-62 melanoma): 1.71 µM
- TGI (UACC-62 melanoma): 3.46 µM
- GI50 (UO-31 renal): 1.39 µM
- TGI (UO-31 renal): 2.82 µM
